Reference: patent publication US20100144626A1, “Treatment of Multi-Drug Resistant Bacterial Infections” (priority 2006, published 2010)
Converted amounts (≈) assume the structure as drawn.

Tests used:
[1] = test system: Enterococcus faecalis (VRE) E8 VanA; experiment: MIC, agar dilution (BSAC guidelines); assay type: cell-based; details: Table 2, E. faecalis (VRE) E8 VanA, read-out: Minimum inhibitory concentration (MIC)
Protocol: (§1) In example experiments miconazole nitrate, was dissolved in methanol and econazole nitrate and clotrimazole were dissolved in DMSO and methanol respectively. Other solvents that may be used include caster oil, pyridine, DMSO and 0.9% saline. For IV administration agents may be solubilised in polyethoxylated caster oil, or cyclodextrins such as sulfobutylether7-βcyclodextrin or hydroxypropyl-β-cyclodextrin and lactic acid. Minimum inhibitory concentrations (MICs) of a range of clinical and control bacterial organisms were measured according to BSAC (British Society for Antimicrobial Chemotherapy) guidelines, described briefly as follows;
(§2) Preparation of Agar Plates and Broths
(§3) Stock solutions of each agent were prepared using the formula:
(§4) Where P=μg of active compound per mg (μg/mg) • V=volume required (mL) • C=final concentration of solution (mg/L) • W=weight of agent (mg) to be dissolved in volume V (mL)
(§5) Stock solutions were prepared at concentrations of 1000 mg/L and 100 mg/L. The appropriate amounts of each stock solution were added to separate Petri dishes give the following final concentrations (after the addition of 20 mL molten agar): 128, 64, 32, 16, 8, 4, 2, 1, 0.5, 0.25, 0.12, 0.06, 0.03, 0.015 mg/L.
(§6) Volumes (20 mL) of cooled molten IST agar (oxoid) was added to each Petri dish and mixed by swirling.
(§7) After drying, the plates were stored at 4° C. and protected from light. Plates were used on the day of preparation.
(§8) The test organisms were grown overnight in 5 mL IST broth. Using a dilution in 0.9% saline of 1:500 for Gram-negative organisms and 1:100 for Gram-positive organisms, the appropriate agar plates were inoculated using a multipoint inoculator.
(§9) Plates were incubated at 37° C. in air for 18-20 hours.
(§10) The MIC is the minimum amount of an antibiotic at which there is no visible growth of bacteria. Tiny single colonies or faint hazes were not counted as growth.

[2] = test system: Enterococcus faecium (VRE) E15 VanA ATCC 4147; experiment: MIC, agar dilution (BSAC guidelines); assay type: cell-based; details: Table 2, E. faecium (VRE) E15 VanA ATCC 4147, read-out: Minimum inhibitory concentration (MIC)
Protocol: as §1, §2, §3, §4, §5, §6, §7, §8, §9, §10

[3] = test system: Enterococcus faecium (VRE) E19 UAA/522 VanB; experiment: MIC, agar dilution (BSAC guidelines); assay type: cell-based; details: Table 2, E. faecium (VRE) E19 UAA/522 VanB, read-out: Minimum inhibitory concentration (MIC)
Protocol: as §1, §2, §3, §4, §5, §6, §7, §8, §9, §10

[4] = test system: Enterococcus faecium (VRE) NCTC 7171; experiment: MIC, agar dilution (BSAC guidelines); assay type: cell-based; details: Table 2, E. faecium (VRE) NCTC 7171, read-out: Minimum inhibitory concentration (MIC)
Protocol: as §1, §2, §3, §4, §5, §6, §7, §8, §9, §10

[5] = test system: Enterococcus faecium (VRE) VanR B145344C LFE; experiment: MIC, agar dilution (BSAC guidelines); assay type: cell-based; details: Table 2, E. faecium (VRE) VanR B145344C LFE, read-out: Minimum inhibitory concentration (MIC)
Protocol: as §1, §2, §3, §4, §5, §6, §7, §8, §9, §10

[6] = test system: Escherichia coli NCTC 10418; experiment: MIC, agar dilution (BSAC guidelines); assay type: cell-based; details: NCTC10418, Table 2, E. coli NCTC 10418, read-out: Minimum inhibitory concentration (MIC)
Protocol: as §1, §2, §3, §4, §5, §6, §7, §8, §9, §10

[7] = test system: Pseudomonas aeruginosa NCTC 10662; experiment: MIC, agar dilution (BSAC guidelines); assay type: cell-based; details: NCTC10662, Table 2, P. aeruginosa NCTC 10662, read-out: Minimum inhibitory concentration (MIC)
Protocol: as §1, §2, §3, §4, §5, §6, §7, §8, §9, §10

[8] = test system: Staphylococcus epidermidis ATCC 1228; experiment: MIC, agar dilution (BSAC guidelines); assay type: cell-based; details: ATCC1228, Table 2, S. epidermidis ATCC 1228, read-out: Minimum inhibitory concentration (MIC)
Protocol: as §1, §2, §3, §4, §5, §6, §7, §8, §9, §10

[9] = test system: VISA, strain USA/VISA 5827; experiment: MIC, agar dilution (BSAC guidelines); assay type: cell-based; details: Staphylococcus aureus, Table 2, read-out: Minimum inhibitory concentration (MIC)
Protocol: as §1, §2, §3, §4, §5, §6, §7, §8, §9, §10

[10] = test system: VISA, strain USA/VISA 5836; experiment: MIC, agar dilution (BSAC guidelines); assay type: cell-based; details: Staphylococcus aureus, Table 2, read-out: Minimum inhibitory concentration (MIC)
Protocol: as §1, §2, §3, §4, §5, §6, §7, §8, §9, §10

[11] = test system: VISA, strain VISA 3900 UK; experiment: MIC, agar dilution (BSAC guidelines); assay type: cell-based; details: Staphylococcus aureus, Table 2, read-out: Minimum inhibitory concentration (MIC)
Protocol: as §1, §2, §3, §4, §5, §6, §7, §8, §9, §10

[12] = test system: strains of Staphylococci and Enterococci with reduced susceptibility to vancomycin; experiment: Growth inhibition, summary of MIC testing; assay type: cell-based; details: summary in words
Protocol: as §1, §5, §8, §9, §10

[13] = in vivo; cited from earlier work

Structure (SMILES)	MIC [1] [µg/mL]	MIC [2] [µg/mL]	MIC [3] [µg/mL]	MIC [4] [µg/mL]	MIC [5] [µg/mL]	MIC [6] [µg/mL]	MIC [7] [µg/mL]	MIC [8] [µg/mL]	MIC [9] [µg/mL]	MIC [10] [µg/mL]	MIC [11] [µg/mL]	activity against strains of Staphylococci and Enterococci with reduced susceptibility to vancomycin [12]	systemic absorption [13]	topical dose recovered in the urine or faeces [13]
c1ccc(-c2ccc(C(c3ccccc3)n3ccnc3)cc2)cc1 (centres unmarked) [Bifonazole]	> 128	> 128	> 128	> 128	> 128	> 128	> 128	> 128	> 128	> 128	> 128	did not show this activity		
OC(Cn1cncn1)(Cn1cncn1)c1ccc(F)cc1F [Fluconazole]	> 128	> 128	> 128	> 128	> 128	> 128	> 128	> 128	> 128	> 128	> 128	did not show this activity		
Clc1ccc(COC(Cn2ccnc2)c2ccc(Cl)cc2Cl)cc1 (centres unmarked) [econazole nitrate]													extremely low	Less than 1%
CC(=O)N1CCN(c2ccc(OCC3COC(Cn4ccnc4)(c4ccc(Cl)cc4Cl)O3)cc2)CC1 (centres unmarked) [Ketoconazole]	> 256	16 (≈ 30.1 µM)	128 (≈ 241 µM)	128 (≈ 241 µM)	128 (≈ 241 µM)	> 256	> 256	64 (≈ 120 µM)	64 (≈ 120 µM)	64 (≈ 120 µM)	64 (≈ 120 µM)	did not show this activity		
